Test results published in patent publication EP0731697B1, “SSI TYRPHOSTINS AND PHARMACEUTICAL COMPOSITIONS” (priority 1993, dated 1995).

Legend:
[1] = system: mice; experiment: LPS toxicity and mortality in mice sensitized with galactosamine; type: in vivo, mice (strain (CD1))
Experimental: In this model for organ failure, mice (strain (CD1)) are injected (i.p.) simultaneously with galactosamine (18 mg/mouse) and LPS (50 ng/mouse). The LD50 of LPS used in this model is approximately 30,000 lower than the LD50 of LPS used alone. The main toxic manifestation in this model is liver damage and mice develop severe hypoglycemia and die within 7-8 hours.
Serial blood glucose determinations were done in individual animals (2 mice per group). […] Administration of the tyrphostins SSI 3, 400 ug/mouse or SSI 17, 200 ug/mouse 2 hours prior to galactosamine and LPS, prevents hypoglycemia (blood glucose level were approximately […] at 0 and the same after 24 hours) and mortality for over 5 days.

[2] = system: PDGFR; conditions: even at concentrations above 100 uM; cited from earlier work
[3] = target: EGF receptor (Homo sapiens, UniProt P00533); conditions: even at concentrations above 100 uM; cited from earlier work
EGF receptor, sequence (P00533 25-1210): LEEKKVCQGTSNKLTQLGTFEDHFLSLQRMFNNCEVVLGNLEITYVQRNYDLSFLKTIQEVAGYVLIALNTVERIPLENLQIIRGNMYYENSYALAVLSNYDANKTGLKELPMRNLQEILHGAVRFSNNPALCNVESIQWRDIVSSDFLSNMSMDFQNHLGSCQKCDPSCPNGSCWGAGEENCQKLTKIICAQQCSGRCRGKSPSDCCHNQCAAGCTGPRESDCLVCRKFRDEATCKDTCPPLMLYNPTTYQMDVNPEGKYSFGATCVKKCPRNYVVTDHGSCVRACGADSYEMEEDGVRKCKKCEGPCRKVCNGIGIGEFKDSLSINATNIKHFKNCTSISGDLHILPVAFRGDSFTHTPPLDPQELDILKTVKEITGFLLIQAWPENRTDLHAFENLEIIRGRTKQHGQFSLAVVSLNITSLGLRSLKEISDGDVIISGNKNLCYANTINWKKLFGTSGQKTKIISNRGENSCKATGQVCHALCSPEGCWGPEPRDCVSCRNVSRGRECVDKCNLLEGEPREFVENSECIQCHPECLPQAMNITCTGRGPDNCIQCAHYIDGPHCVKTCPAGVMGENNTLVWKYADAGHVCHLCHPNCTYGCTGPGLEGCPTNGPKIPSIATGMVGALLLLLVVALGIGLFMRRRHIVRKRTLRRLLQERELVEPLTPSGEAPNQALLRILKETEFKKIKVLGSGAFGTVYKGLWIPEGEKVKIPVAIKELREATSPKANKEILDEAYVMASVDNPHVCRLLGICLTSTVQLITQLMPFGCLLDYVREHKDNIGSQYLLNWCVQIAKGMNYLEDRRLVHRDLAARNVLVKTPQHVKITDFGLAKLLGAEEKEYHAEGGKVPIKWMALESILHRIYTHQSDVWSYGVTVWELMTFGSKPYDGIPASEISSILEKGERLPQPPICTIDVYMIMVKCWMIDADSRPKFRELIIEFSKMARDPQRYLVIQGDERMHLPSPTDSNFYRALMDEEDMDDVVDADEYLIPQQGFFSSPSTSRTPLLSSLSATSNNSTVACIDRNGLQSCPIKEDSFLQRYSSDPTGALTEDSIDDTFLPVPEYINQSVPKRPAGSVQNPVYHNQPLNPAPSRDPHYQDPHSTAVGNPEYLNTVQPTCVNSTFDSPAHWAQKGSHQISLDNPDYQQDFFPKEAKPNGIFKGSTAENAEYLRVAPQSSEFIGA

[4] = system: p42^MAPK; experiment: LPS-induced tyrosine phosphorylation in macrophages; type: cell-based; conditions: murine peritoneal macrophages pre-treated with protective concentrations
Text: LPS-induced tyrosine phosphorylation of a 42 kD protein in murine peritoneal macrophages was inhibited by pre-treating the cells as before with protective concentrations of SSI 3. This protein band was identified as p42^MAPK. […] (Stefanova et al., supra.)

[5] = system: mice; experiment: LPS-induced lethal toxicity in mice

Compound: N#CC(C#N)=Cc1ccc([N+](=O)[O-])c(O)c1 [SSI 3]
- blood glucose level ([1]; after 24 hours, SSI 3 400 ug/mouse or SSI 17 200 ug/mouse 2 hours prior to galactosamine (18 mg/mouse) and LPS (50 ng/mouse), 2 mice per group): approximately 100 % mg
- hypoglycemia and mortality ([1]; mortality for over 5 days, SSI 3 400 ug/mouse or SSI 17 200 ug/mouse 2 hours prior to galactosamine and LPS): prevents
- effect on PDGFR [2]: no effect
- effect on EGF receptor [3]: no effect
- LPS-induced tyrosine phosphorylation of a 42 kD protein [4]: inhibited
- extent of lethality ([5]; 400 ug/mouse i.p. two hrs prior to LPS 1.5 mg/mouse, within 5 days, 2 mice out of 20, LPS alone 95%): 10%
- minimal dose that provided essentially full protection against LPS induced lethal toxicity ([5]; LPS 1.5 mg/mouse, administered 2 hours prior to LPS): 400 ug/mouse
- protective effect on the LPS-induced lethal toxicity ([5]; administered 2 hours after LPS): essentially no protective effect
- preventing the lethal toxicity ([5]; administered at the time of LPS treatment, compared with 2 hr prior to LPS): less effective
- protection against LPS induced lethal toxicity ([5]; doses of 100 and 200 ug/mouse, 5 mice over 6 days): partial protection
